Reference: patent US20240002424A1, “HEXOSAMINE COMPOUNDS AND METHODS THEREOF” (National Institute of Immunology, priority 2021, published 2024)

What was measured:
Assay type in all cases: cell-based, human
HL-60 cells [1] = assay: SNA lectin binding on intact cells by flow cytometry; settings: 50 μM, 24 h
HL-60 cells [2] = assay: NeuAz expression by SPAAC with DBCO-Cy5 and flow cytometry, competition with 1c; settings: 50 μM with 1c 50 μM, 24 h
Experimental: (§1) Estimation of NeuAz expression by 1c in the presence of peracetylated ManNAc analogues: Jurkat cells (3.0×10^5 cells/mL in 3.0 mL per well in 6-well plates) were incubated with (i) D, (ii) 1a, 1b, 1c, or 1d alone (50 mM) or (iii) 1a, 1b, or 1d (50 mM) in combination with 1c (50 mM). After 24 h, cells were harvested, washed using FSB, aliquoted to 5.0×10^5 cells per sample, and processed as mentioned above for estimation of NeuAz expression using DBCO-Cy5 ([…]). Experiments using HL-60 cells were performed using the same procedure.
Having confirmed metabolic acceptability in Jurkat cells, the compounds were tested on HL-60 (human acute myeloid leukemia) cells which are a reliable model for neutrophil adhesion. The effect on competitive suppression of NeuAz expression was studied using 1c as a reporter. HL-60 cells were treated with 1c either alone (50 μM) or in combination with ManNAc analogues (50 μM), including the straight chain derivatives, for 24 h followed by DBCO-Cy5 ligation. […] The decreasing ability of linear alkyl moieties (1d-1g), as a function of chain length, for suppression of NeuAz expression is in contrast to the cycloalkyl moieties. […] Similarly, 1a induced a reduction of 40% compared to only a 15% reduction by 1f.

Jurkat cells = assay: NeuAz expression on the cell surface by SPAAC with DBCO-Cy5 and flow cytometry, competition with Ac4ManNAz (1c); settings: for NeuAz expression / DBCO-Cy5 signal, compound alone: 50 μM alone; for extent of suppression of NeuAz expression by 1c: 50 μM co-incubated with 1c, study parallel to GalNAz; for NeuAz expression, % of controls: 50 μM with 1c 50 μM, simultaneous addition; for reduction of NeuAz, simultaneous addition: analogue 10 μM and 1c 50 μM added simultaneously
Experimental: FIG. 5 illustrates competitive processing by compounds of the present invention (ManNAc compounds). ManNAc compounds competitively reduce the expression of N-azidoacetyl-D-neuraminic acid (NeuAz)-carrying sialoglycans through the metabolic processing of Ac4ManNAz. Jurkat (human T-lymphoma) cells were incubated with Ac4ManNAz (Z) (50 μM) alone, co-incubated with GL-2, GL-3, MA-2, or MA-3 (at various concentrations such as 10,
25, and 50 μM) for 24 h. Expression of N-azidoacetyl-D-neuraminic acid (NeuAz) on the cell surface sialoglycans was estimated using strain-promoted azide-alkyne cycloaddition (SPAAC) with DBCO-Cy5 and analyzed by flow cytometry. […] GL-2 was used for comparative study and the structure of this compound is as below.
Jurkat cells (3.0×10^5 cells/mL; 2.5 mL per well in 6-well plates) in complete medium were treated with either vehicle (D) or Compound 1c; Untreated Jurkat cells, without addition of vehicle, were also included as additional controls. Cells were harvested at 48 h, washed thrice with PBS (3×0.5 mL) (3000×g, 2.0 min). Prior to the last wash cells were counted and were aliquoted to 1.0×10^6 cells per sample in 1.5 mL microcentrifuge tubes and centrifuged. The cells were gently resuspended in PBS ([…]) and treated with DBCO-Cy5 ([…]) and incubated at 37° C. (on a Torrey-Pines dry heating bath with mild shaking). After one hour, the cells were washed using FSB (0.5 mL, 3000×g, 2.0 min, room temperature), resuspended in PBS (250 mL), treated with PI (2.5 mg/mL), and analyzed using BD FACSCanto and FACSDiva Version 6.1.3. The cells were gated for PI-negative population for 10,000 events. Two replicate samples were prepared for each conditions and each sample was counted twice.
as §1, with “procedure. […]” for “procedure.”
Effect of GlcNAc and ManNAc analogues on NeuAz expression: Jurkat cells were treated with 1a, 1b, 2a, or 2b (10, 25, and 50 mM for each analogue) in combination with 1c (50 mM). Cells treated with 1c (50 mM) alone were considered as a reference. After 24 h, cells were harvested, processed, labelled with DBCO-Cy5 ([…]), and analysed by flow cytometry as mentioned above.
In order to evaluate the metabolism, Jurkat (human T-lymphoma) cells were selected and incubated with ManNAc analogues either alone (50 μM) or in combination with 1c (50 μM) for 48 h. Expression of NeuAz on cell surface was estimated by flow cytometry through the copper-free bio-orthogonal strain-promoted azide-alkyne cycloaddition (SPAAC) reaction using dibenzocyclooctyne-Cy5 (DBCO-Cy5). The conditions for click reaction were optimized for various concentrations of DBCO-Cy5 and time course of SPAAC reaction in Jurkat cells. Based on the optimization results, incubation time of 30 min at 37° C. for 5.0×10^5 cells (pre-incubated with 1c for 48 h) with 20 μM of DBCO-Cy5 in 100 μL total volume for experiments with ManNAc analogues was chosen. […] In order to test the dose-dependency of this inhibitory effect on NeuAz expression and to establish competitive metabolic processing, Jurkat cells were first treated with either 1a or 1b (0-50 μM) followed by addition of 1c (50 μM) at 12 h and estimation of NeuAz at 48 h. As expected, the suppression of NeuAz expression was substantially higher when added with a 12 h delay compared to simultaneous addition, in a dose-dependent manner. […] By contrast simultaneous addition resulted only in a 10% reduction of NeuAz for both 1a and 1b (FIG. 6C and FIG. 7B).

[3] = 50 μM co-incubated with 1c 50 μM, 48 h

| SMILES | SNA binding on intact cells compared to untreated cells (HL-60 cells [1]) | NeuAz expression with respect to 1c alone (100%) (HL-60 cells [2]) [%] | suppression of NeuAz expression (in words) (HL-60 cells [2]) | NeuAz expression / DBCO-Cy5 signal, compound alone (Jurkat cells; 48 h) | NeuAz expression (1c alone taken as 100%) (Jurkat cells; [3]) [%] | reduction of NeuAz expression (Jurkat cells; [3]) [%] | reduction of NeuAz expression with respect to controls (HL-60 cells [2]) [%] | extent of suppression of NeuAz expression by 1c (Jurkat cells) [%] | NeuAz expression, % of controls (Jurkat cells; 24 h) [%] | NeuAz expression upon co-incubation with Ac4ManNAz (Jurkat cells; Ac4ManNAz (Z) 50 μM plus analogue at 10, 25, 50 μM, 24 h, listed as MA-2) | reduction of NeuAz, simultaneous addition (Jurkat cells) [%] |
| --- | --- | --- | --- | --- | --- | --- | --- | --- | --- | --- | --- |
| CC(=O)NC1C(OC(C)=O)OC(COC(C)=O)[C@@H](OC(C)=O)[C@@H]1OC(C)=O (stereo partly drawn) [Compound 1d, 1,3,4,6-tetra-O-acetyl-2-acetylamino-2-deoxy-α/β-D-mannopyranose] | no significant differences | 40 | Maximum suppression | negligible signals | 30 | 70 |  |  |  |  |  |
| CC(=O)OC[C@H]1O[C@H](OC(C)=O)[C@@H](NC(=O)C2CC2)[C@@H](OC(C)=O)[C@@H]1OC(C)=O [Compound 1a, 1,3,4,6-tetra-O-acetyl-2-cyclopropanoylamino-2-deoxy-α-D-mannopyranose] | no significant differences | 60 |  | negligible signals | 60 |  | 40 | 50 | 60 | reduced competitively in a dose-dependent manner | 10 |
| CC(=O)OC[C@H]1OC(OC(C)=O)[C@@H](NC(=O)C2CCC2)[C@@H](OC(C)=O)[C@@H]1OC(C)=O (stereo partly drawn) [Compound 1b, (3S,4R,5S,6R)-6-(acetoxymethyl)-3-(cyclobutanecarboxamido)tetrahydro-2H-pyran-2,4,5-triyl triacetate] | no significant differences | 55 |  | negligible signals | 65 |  | 45 | 50 | 50 |  | 10 |
